Assay results taken from patent US20240409559A1, “CRYSTALLINE FORM OF AZALACTAM COMPOUND” (PFIZER INC., priority 2021, published 2024).

Columns and labels:
[1] = Moisture sorption/desorption by dynamic vapor sorption (DVS), with post-DVS PXRD; assay type: physicochemical
Description: This example provides characterization data on PF-07265028 Form 1 from a sample obtained using a procedure disclosed in International Patent Publication No. WO2021/220185, using powder x-ray diffraction and dynamic vapor sorption to support the preparation of a disclosure. Form 1 is a crystalline hygroscopic tetrahydrate with multiple powder patterns depending on temperature and humidity. […] The dehydration risk can pose challenges to API isolation, storage and drug product manufacture. Maintaining the proper water content is considered to be difficult for Form 1.

[2] = Thermal analysis: dehydration by TGA; assay type: physicochemical

Hygroscopicity (in words) [1]	Post-DVS PXRD compared with in-going material ([1]; after DVS experiment)	Hygroscopicity: Moisture Sorption (DVS)-Anhydrous ([1]; at 60% RH)	Hygroscopicity: Moisture Sorption (DVS)-Anhydrous ([1]; at 75% RH)	Hygroscopicity: Moisture Sorption (DVS)-Anhydrous ([1]; at 90% RH)	Moisture Sorption/Desorption-Hydrate (DVS): Change in mass-ref (%) ([1]; 75% RH)	Moisture Sorption/Desorption-Hydrate (DVS): Change in mass-ref (%) ([1]; 90% RH)	Crystallinity after dehydration ([1]; after dehydration, PXRD after the water sorption experiment)	Post-DVS PXRD result ([1]; after water sorption experiment)	Moisture Sorption/Desorption-Hydrate (DVS): dehydration state ([1]; at 3% RH)	Moisture Sorption/Desorption-Hydrate (DVS): rehydrate at or below 10% RH ([1]; at or below 10% RH)	Rehydration at high humidity conditions ([1]; high humidity conditions, after dehydration)	Dehydration (TGA)-Hydrated/Solvated, weight loss [2]	Structure (SMILES)	Moisture Sorption/Desorption-Hydrate (DVS): Change in mass-ref (%) ([1]; at 60% RH)
non-hygroscopic	Post-DVS PXRD is consistent with in-	~0.2% at 60% RH	~0.2% at 75% RH	~0.2% at 90% RH									CC[C@@H](N)c1nc(N2CCC[C@H]2C)cc2c1CN(c1cccc(-c3nnc4n3[C@@H](C)CC4)n1)C2=O [Form 2, 4-[(1R)-1-aminopropyl]-2-{6-[(5S)-5-methyl-6,7-dihydro-5H-pyrrolo[2,1-c][1,2,4]triazol-3-yl]pyridin-2-yl}-6-[(2R)-2-methylpyrrolidin-1-yl]-2,3-dihydro-1H-pyrrolo[3,4-c]pyridin-1-one]	
hygroscopic					~−2.4%	~−0.1%	can lose crystallinity	peak shifting and disorder observed	Completely dehydrated	did not	does not rehydrate	~14% weight loss	CC[C@@H](N)c1nc(N2CCC[C@H]2C)cc2c1CN(c1cccc(-c3nnc4n3[C@@H](C)CC4)n1)C2=O [Form 1, 4-[(1R)-1-aminopropyl]-2-{6-[(5S)-5-methyl-6,7-dihydro-5H-pyrrolo[2,1-c][1,2,4]triazol-3-yl]pyridin-2-yl}-6-[(2R)-2-methylpyrrolidin-1-yl]-2,3-dihydro-1H-pyrrolo[3,4-c]pyridin-1-one]	Change in mass-ref (%) at 60% RH: ~−6.2%;
